# Assay results from article PMC10562414, “GLP-1R signaling neighborhoods associate with the susceptibility to adverse drug reactions of incretin mimetics” (Nature Communications, 2023).
# Key:
# Assay type in all cases: cell-based
# GLP-1R [1] = target: T1, GLP-1R (Homo sapiens, UniProt P43220); assay: ebBRET pathway activation (15 pathways) at the Golgi apparatus (tdrGFP-Giantin); conditions: for Efficacy (normalized) / Potency (logEC50) / Emax: Golgi apparatus
# GLP-1R [2] = target: T1, GLP-1R; assay: ebBRET pathway activation (effector membrane translocation, 15 pathways) at the plasma membrane (rGFP-CAAX); parameters: Potency (logEC50): scale not given here; conditions: for Efficacy (normalized) / Emax / Potency (logEC50): Plasma membrane; for Efficacy (normalized): Fig. 2c; for Potency (logEC50): Fig. 2d
# GLP-1R [3] = target: T1, GLP-1R; assay: ebBRET pathway activation (15 pathways), Supplementary Fig. 14; compartment not given
# [4] = plasma membrane rGFP-CAAX, HEK293, PDZRhoGEF-RlucII, agonist incubation 0 min, as tabulated for polar area diagram, n=3-6
# [5] = plasma membrane rGFP-CAAX, HEK293, Rap1Gap-RlucII, agonist incubation 0 min, as tabulated for polar area diagram, n=3-6
# [6] = plasma membrane rGFP-CAAX, HEK293, Rap1Gap-RlucII, agonist incubation 0 min, normalized to the highest responding drug, F test P < 0.00625, n=3-6
# [7] = plasma membrane rGFP-CAAX, HEK293, p63RhoGEF-RlucII, agonist incubation 0 min, as tabulated for polar area diagram, n=3-6
# [8] = plasma membrane rGFP-CAAX, HEK293, p63RhoGEF-RlucII, agonist incubation 0 min, normalized to the highest responding drug, F test P < 0.00625, n=3-6
# T1 sequence (P43220 24-463): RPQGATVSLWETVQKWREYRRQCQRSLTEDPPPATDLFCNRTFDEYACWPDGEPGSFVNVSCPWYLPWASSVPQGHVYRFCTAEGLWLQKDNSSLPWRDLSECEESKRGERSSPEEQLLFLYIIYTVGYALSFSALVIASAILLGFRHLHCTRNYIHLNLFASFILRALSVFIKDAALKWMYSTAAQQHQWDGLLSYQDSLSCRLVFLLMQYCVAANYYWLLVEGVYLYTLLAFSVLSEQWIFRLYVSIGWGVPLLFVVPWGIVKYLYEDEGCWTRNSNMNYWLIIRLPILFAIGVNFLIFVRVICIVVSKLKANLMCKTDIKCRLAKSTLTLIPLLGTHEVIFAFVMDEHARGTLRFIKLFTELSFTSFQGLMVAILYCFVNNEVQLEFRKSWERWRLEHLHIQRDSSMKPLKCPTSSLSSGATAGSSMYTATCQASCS
compound,measurement,setting,value
N#Cc1ccc(COc2cccc(C3CCN(Cc4nc5ccc(C(=O)O)cc5n4C[C@@H]4CCO4)CC3)n2)c(F)c1 [Danuglipron],Efficacy (normalized),GLP-1R [1]; GRK2/Gβγ,0
same,Potency (logEC50),GLP-1R [1]; GRK2/Gβγ,0
same,Emax,GLP-1R [1]; GRK/Gβγ,0
same,Efficacy (normalized),GLP-1R [1]; Gα11,0
same,Emax,GLP-1R [1]; Gα11,0
same,Potency (logEC50),GLP-1R [1]; Gα11,0
same,Efficacy (normalized),GLP-1R [1]; Gα12,0
same,Emax,GLP-1R [1]; Gα12,0
same,Potency (logEC50),GLP-1R [1]; Gα12,0
same,Efficacy (normalized),GLP-1R [1]; Gα13,0
same,Emax,GLP-1R [1]; Gα13,0
same,Potency (logEC50),GLP-1R [1]; Gα13,0
same,Efficacy (normalized),GLP-1R [1]; Gα14,0
same,Emax,GLP-1R [1]; Gα14,0
same,Potency (logEC50),GLP-1R [1]; Gα14,0
same,Efficacy (normalized),GLP-1R [1]; Gα15,0
same,Emax,GLP-1R [1]; Gα15,0
same,Potency (logEC50),GLP-1R [1]; Gα15,0
same,Efficacy (normalized),GLP-1R [1]; Gαi1,0
same,Emax,GLP-1R [1]; Gαi1,0
same,Potency (logEC50),GLP-1R [1]; Gαi1,0
same,Efficacy (normalized),GLP-1R [1]; Gαi2,0
same,Emax,GLP-1R [1]; Gαi2,0
same,Potency (logEC50),GLP-1R [1]; Gαi2,0
same,Efficacy (normalized),GLP-1R [1]; Gαi3,0
same,Emax,GLP-1R [1]; Gαi3,0
same,Potency (logEC50),GLP-1R [1]; Gαi3,0
same,Efficacy (normalized),GLP-1R [1]; GαoA,0
same,Emax,GLP-1R [1]; GαoA,0
same,Potency (logEC50),GLP-1R [1]; GαoA,0
same,Efficacy (normalized),GLP-1R [1]; GαoB,0
same,Emax,GLP-1R [1]; GαoB,0
same,Potency (logEC50),GLP-1R [1]; GαoB,0
same,Efficacy (normalized),GLP-1R [1]; Gαq,0
same,Emax,GLP-1R [1]; Gαq,0
same,Potency (logEC50),GLP-1R [1]; Gαq,0
same,Efficacy (normalized),GLP-1R [1]; Gαs,0.8077
same,Emax,GLP-1R [1]; Gαs,0.9498
same,Potency (logEC50),GLP-1R [1]; Gαs,0.7638
same,Efficacy (normalized),GLP-1R [1]; Gαz,1
same,Emax,GLP-1R [1]; Gαz,0.06827
same,Potency (logEC50),GLP-1R [1]; Gαz,0.517
same,Emax,GLP-1R [1]; βARR,0.7121
same,Efficacy (normalized),GLP-1R [1]; βARR2,0.4942
same,Potency (logEC50),GLP-1R [1]; βARR2,0.4339
same,"mGs recruitment at the Golgi apparatus, in words","GLP-1R [1]; Rluc8-mGs, tdrGFP-Giantin, 60 min, n = 3",induced a strong response at the Golgi apparatus
same,"pathway activation at the plasma membrane, in words","GLP-1R [2]; 15 pathways, HEK293, ebBRET",biased away from βARR towards Gs and Gi/o
same,Efficacy (normalized),GLP-1R [2]; GRK2/Gβγ,0.6954
same,Emax,GLP-1R [2]; GRK/Gβγ,0.5067
same,Emax,GLP-1R [2]; Gα11,0
same,Efficacy (normalized),GLP-1R [2]; Gα11,0
same,Potency (logEC50),GLP-1R [2]; Gα11,0
same,Emax,GLP-1R [2]; Gα12,0
same,Efficacy (normalized),GLP-1R [2]; Gα12,0
same,Potency (logEC50),GLP-1R [2]; Gα12,0
same,Emax,GLP-1R [2]; Gα13,0
same,Efficacy (normalized),GLP-1R [2]; Gα13,0
same,Potency (logEC50),GLP-1R [2]; Gα13,0
same,Emax,GLP-1R [2]; Gα14,0
same,Efficacy (normalized),GLP-1R [2]; Gα14,0
same,Potency (logEC50),GLP-1R [2]; Gα14,0
same,Emax,GLP-1R [2]; Gα15,0
same,Efficacy (normalized),GLP-1R [2]; Gα15,0
same,Potency (logEC50),GLP-1R [2]; Gα15,0
same,Emax,GLP-1R [2]; Gαi1,0.0218
same,Efficacy (normalized),GLP-1R [2]; Gαi1,0.3729
same,Potency (logEC50),GLP-1R [2]; Gαi1,0.3182
same,Emax,GLP-1R [2]; Gαi2,0.2304
same,Efficacy (normalized),GLP-1R [2]; Gαi2,0.9309
same,Potency (logEC50),GLP-1R [2]; Gαi2,0.1266
same,Emax,GLP-1R [2]; Gαi3,0.03983
same,Efficacy (normalized),GLP-1R [2]; Gαi3,0.6445
same,Potency (logEC50),GLP-1R [2]; Gαi3,0.2454
same,Emax,GLP-1R [2]; GαoA,0
same,Efficacy (normalized),GLP-1R [2]; GαoA,0
same,Potency (logEC50),GLP-1R [2]; GαoA,0
same,Emax,GLP-1R [2]; GαoB,0.4329
same,Efficacy (normalized),GLP-1R [2]; GαoB,0.5975
same,Potency (logEC50),GLP-1R [2]; GαoB,0.326
same,Emax,GLP-1R [2]; Gαq,0
same,Efficacy (normalized),GLP-1R [2]; Gαq,0
same,Potency (logEC50),GLP-1R [2]; Gαq,0
same,Emax,GLP-1R [2]; Gαs,1.832
same,Efficacy (normalized),GLP-1R [2]; Gαs,0.7714
same,Potency (logEC50),GLP-1R [2]; Gαs,0.5221
same,Emax,GLP-1R [2]; Gαz,0.2013
same,Efficacy (normalized),GLP-1R [2]; Gαz,0.678
same,Potency (logEC50),GLP-1R [2]; Gαz,0.3391
same,Emax,GLP-1R [2]; βARR,0.3843
same,Efficacy (normalized),GLP-1R [2]; βARR2,0.2947
same,"Efficacy (normalized), GRK2/Gβγ","GLP-1R [2]; plasma membrane rGFP-CAAX, HEK293, GRK2-D110A-RlucII, agonist incubation 0 min, normalized to the highest responding drug, F test P < 0.00625, n=3-6",0.6954
same,"Potency (logEC50), Gα12",GLP-1R [2]; [4],0
same,"Potency (logEC50), Gα13",GLP-1R [2]; [4],0
same,"Efficacy (normalized), Gα13","GLP-1R [2]; plasma membrane rGFP-CAAX, HEK293, PDZRhoGEF-RlucII, agonist incubation 0 min, normalized to the highest responding drug, F test P < 0.00625, n=3-6",0
same,"Potency (logEC50), Gαi1",GLP-1R [2]; [5],0.3182
same,"Potency (logEC50), Gαi2",GLP-1R [2]; [5],0.1266
same,"Potency (logEC50), Gαi3",GLP-1R [2]; [5],0.2454
same,"Potency (logEC50), GαoA",GLP-1R [2]; [5],0
same,"Potency (logEC50), GαoB",GLP-1R [2]; [5],0.326
same,"Potency (logEC50), Gαz",GLP-1R [2]; [5],0.3391
same,"Efficacy (normalized), Gαi1",GLP-1R [2]; [6],0.3729
same,"Efficacy (normalized), Gαi2",GLP-1R [2]; [6],0.9309
same,"Efficacy (normalized), Gαi3",GLP-1R [2]; [6],0.6445
same,"Efficacy (normalized), GαoA",GLP-1R [2]; [6],0
same,"Efficacy (normalized), GαoB",GLP-1R [2]; [6],0.5975
same,"Efficacy (normalized), Gαz",GLP-1R [2]; [6],0.678
same,"Potency (logEC50), Gαs","GLP-1R [2]; plasma membrane rGFP-CAAX, HEK293, Rluc8-mGs, agonist incubation 0 min, as tabulated for polar area diagram, n=3-6",0.5221
same,"Efficacy (normalized), Gαs","GLP-1R [2]; plasma membrane rGFP-CAAX, HEK293, Rluc8-mGs, agonist incubation 0 min, normalized to the highest responding drug, F test P < 0.00625, n=3-6",0.7714
same,"Potency (logEC50), Gα11",GLP-1R [2]; [7],0
same,"Potency (logEC50), Gα14",GLP-1R [2]; [7],0
same,"Potency (logEC50), Gα15",GLP-1R [2]; [7],0
same,"Potency (logEC50), Gαq",GLP-1R [2]; [7],0
same,"Efficacy (normalized), Gα11",GLP-1R [2]; [8],0
same,"Efficacy (normalized), Gα14",GLP-1R [2]; [8],0
same,"Efficacy (normalized), Gα15",GLP-1R [2]; [8],0
same,"Efficacy (normalized), Gαq",GLP-1R [2]; [8],0
same,"Efficacy (normalized), βARR2","GLP-1R [2]; plasma membrane rGFP-CAAX, HEK293, β-arrestin-2-RlucII, agonist incubation 0 min, normalized to the highest responding drug, F test P < 0.00625, n=3-6",0.2947
same,"Efficacy (normalized), GRK2/Gβγ","GLP-1R [3]; GRK2/Gβγ, Supplementary Fig. 14a, normalized",0
same,"Efficacy (normalized), Gα11","GLP-1R [3]; Gα11, Supplementary Fig. 14a, normalized",0
same,"Potency (logEC50), Gα11","GLP-1R [3]; Gα11, Supplementary Fig. 14b",0
same,"Efficacy (normalized), Gα12","GLP-1R [3]; Gα12, Supplementary Fig. 14a, normalized",0
same,"Potency (logEC50), Gα12","GLP-1R [3]; Gα12, Supplementary Fig. 14b",0
same,"Efficacy (normalized), Gα13","GLP-1R [3]; Gα13, Supplementary Fig. 14a, normalized",0
same,"Potency (logEC50), Gα13","GLP-1R [3]; Gα13, Supplementary Fig. 14b",0
same,"Efficacy (normalized), Gα14","GLP-1R [3]; Gα14, Supplementary Fig. 14a, normalized",0
same,"Potency (logEC50), Gα14","GLP-1R [3]; Gα14, Supplementary Fig. 14b",0
same,"Efficacy (normalized), Gα15","GLP-1R [3]; Gα15, Supplementary Fig. 14a, normalized",0
same,"Potency (logEC50), Gα15","GLP-1R [3]; Gα15, Supplementary Fig. 14b",0
same,"Efficacy (normalized), Gαi1","GLP-1R [3]; Gαi1, Supplementary Fig. 14a, normalized",0
same,"Potency (logEC50), Gαi1","GLP-1R [3]; Gαi1, Supplementary Fig. 14b",0
same,"Efficacy (normalized), Gαi2","GLP-1R [3]; Gαi2, Supplementary Fig. 14a, normalized",0
same,"Potency (logEC50), Gαi2","GLP-1R [3]; Gαi2, Supplementary Fig. 14b",0
same,"Efficacy (normalized), Gαi3","GLP-1R [3]; Gαi3, Supplementary Fig. 14a, normalized",0
same,"Potency (logEC50), Gαi3","GLP-1R [3]; Gαi3, Supplementary Fig. 14b",0
same,"Efficacy (normalized), GαoA","GLP-1R [3]; GαoA, Supplementary Fig. 14a, normalized",0
same,"Potency (logEC50), GαoA","GLP-1R [3]; GαoA, Supplementary Fig. 14b",0
same,"Efficacy (normalized), GαoB","GLP-1R [3]; GαoB, Supplementary Fig. 14a, normalized",0
same,"Potency (logEC50), GαoB","GLP-1R [3]; GαoB, Supplementary Fig. 14b",0
same,"Efficacy (normalized), Gαq","GLP-1R [3]; Gαq, Supplementary Fig. 14a, normalized",0
same,"Potency (logEC50), Gαq","GLP-1R [3]; Gαq, Supplementary Fig. 14b",0
same,"Efficacy (normalized), Gαs","GLP-1R [3]; Gαs, Supplementary Fig. 14a, normalized",0.8077
same,"Potency (logEC50), Gαs","GLP-1R [3]; Gαs, Supplementary Fig. 14b",0.7638
same,"Efficacy (normalized), Gαz","GLP-1R [3]; Gαz, Supplementary Fig. 14a, normalized",1
same,"Potency (logEC50), Gαz","GLP-1R [3]; Gαz, Supplementary Fig. 14b",0.517
same,"Efficacy (normalized), βARR2","GLP-1R [3]; βARR2, Supplementary Fig. 14a, normalized",0.4942
same,"Potency (logEC50), βARR2","GLP-1R [3]; βARR2, Supplementary Fig. 14b",0.4339
